US8618043B2, “Use of ADNF polypeptides for treating anxiety and depression” (Ramot at Tel-Aviv University, priority 2003, dated 2013)

What was measured:
[1] = in vivo; cited from earlier work
[2] = cited from earlier work
[3] = tested on: ND-Swiss male mice; experiment: Morris water maze, chronic intranasal NAP; format: in vivo, mouse; details: eight-month-old mice
Procedure: ND-Swiss male mice (8 months old; Harlan Sprague Dawley, Inc., Indianapolis, Ind.) were kept under a 12:12 hour light/dark regimen, with food and water available at all times. The mice were kept in the animal care facility of the Tel Aviv University in compliance with institutional and state guidelines.
NAP was custom synthesized by Peninsula (Bachem, Torrance, Calif., USA) or Peptide Technologies (Bethesda, Md., USA). The peptide was dissolved in a solution DD, in which each milliliter included 7.5 mg NaCl, 1.7 mg citric acid monohydrate, 3 mg disodium phosphate dihydrate and 0.2 mg benzalkonium chloride solution (50%). The peptide was administered intranasally every day, 5 days a week, 0.5 μg in 10 μl for each mouse, half the portion in each nostril. The control group received 10 μl of the inert carrier per day. The mice were treated at least 1 h prior to the daily experiment (water maze).
Mice were also subjected to two daily tests in a Morris water maze (diameter 90 cm; depth, 20 cm), as described in WO 01/092333, incorporated herein by reference. Latency to reach the hidden platform over a 90 second test period was recorded. The experiment was performed for 4-5 consecutive days. […] The platform was then removed from the maze and the time spent by the mice in the pool's quarter where the platform used to be was recorded (for 90 seconds). […]

[4] = tested on: Bovine MAP-rich tubulin; experiment: Microtubule assembly, absorbance at 350 nm; format: biochemical; details: negative control peptide, concentration not given
Procedure: A microtubule assembly kit CytoDYNAMIX Screen 01(CDS01) was obtained from Cytoskeleton (Denver, Colo.). Bovine MAP-rich tubulin (HTS01) was resuspended in G-PEM buffer (80 mM PIPES pH 6.9, 1 mM MgCl, 1 mM EGTA and 1 mM GTP) and subjected to polymerization at 37° C. The reaction was performed in 96-well plate. Assembly was monitored with a spectrophotometer SPECTRAmax 190 (Molecular Devices, Sunnyvale, Calif.) employing continuous recording at 350 nm.

[5] = tested on: astrocytes from newborn rat cerebral cortex; experiment: Confocal microscopy of microtubule re-organization; format: cell-based
Procedure: Rat cerebral cortical cells from newborn pups were prepared as before (Bassan et al., 1999). All procedures performed in these studies were conducted in accordance with the Tel Aviv University regulations and were approved by the Animal Care and Use Committee of Tel Aviv University. The use of animals was not excessive and no animal suffering occurred. In short, cerebral cortical tissue was incubated for 20 minutes at 37° C. in Hanks' balanced salt solution+15 mM HEPES, pH 7.3 containing trypsin B (Biological Industries, Beit Haemek, Israel). Dissociated cerebral cortical cells were added to the culture dish with 5% horse serum in DMEM. Cells were plated in a ratio of 1 cortex per two 75 cm^2 cell culture flasks (polystyrene, Corning, N.Y.). The medium was changed 1 day after plating. For astrocyte cultures, cells were split after 10 incubation days and plated in 24 well plates (each flask into 60 wells containing microscope cover glasses (12 mm diameter) and 250 μl medium). Cells were then incubated two additional weeks. For mixed neuroglial cultures, dissociated cerebral cortical cells were plated on a bed of astrocytes 2 weeks after the split and incubated in neuron-specific medium as before (Bassan et al., 1999; Brenneman, & Gozes, J. Clin. Invest. 97:2299-2307 (1996); based on Forsythe & Westbrook, J. Physiol. 396:515-533 (1988)). […]

Compound	adverse side effects in toxicology studies [1]	brain penetration ([2]; following intranasal administration)	crossing of the blood-brain barrier ([2]; radiolabeled peptides, intranasal, intravenous or intraperitoneal administration)	time to reach the visible platform (motor behavior) [3]	effect on microtubule assembly [4]	microtubule re-organization / microtubule-associated morphological change [5]
CC[C@H](C)[C@H](NC(=O)[C@H](CO)NC(=O)[C@@H](NC(=O)[C@@H]1CCCN1C(=O)[C@H](C)NC(=O)[C@@H](N)CC(N)=O)C(C)C)C(=O)N1CCC[C@H]1C(=O)N[C@@H](CCC(N)=O)C(=O)O [NAP]	no adverse side effects	brain penetration	can cross the blood-brain barrier	24+7.6		
VLGGGSALL [C2]					did not affect	did not induce
